# In patent publication US4258199A, “Method for preparing cyclic ethers and thioethers including oxygen isomers and sulfur analogs of prostacyclin” (Research Corporation, priority 1978, dated 1981):
# Counter-ions that a name gives are not always drawn.
# Assays:
# [1] = half-life in saline / stability in solution (Table 1); format: physicochemical; settings: 250° C. (so in the source); for half-life: read-out: t 1/2 saline
# From the text: The removal of the protecting groups R^1, R^2 and R^3 from the resulting products of the oxidation, i.e, the allylic oxygen cyclic ethers or sulfones or the vinylic sulfoxides, or sulfones, can be carried out with acid or base or sequentially with both, if necessary, and yields prostacyclin isomers and analogs. A particularly useful prostacyclin sulfur analog, 6,9α-thiaprostacyclin ester can be obtained by reducing a 6,9α-sulfoxaprostacyclin ester--obtained as described supra--with a reducing agent such as trimethylsilyliodide.
# [2] = test system: human and rabbit citrated platelet-rich plasma; assay: platelet aggregation, citrated platelet-rich plasma in a chronolog aggregometer (agonistic and antagonistic activity vs ADP); format: cell-based; settings: 20 mM and 2 μM (so in the source), inhibition of aggregation by 2 μM ADP, or antagonism of 5 mM prostacyclin
# Experimental: Effects of prostacyclin analogs on platelet aggregation was evaluated using human and rabbit citrated platelet-rich plasma in a chronolog aggregometer at […]. Each of the analogs was tested at two concentrations (20 mM and 2 μM) for agonistic activity (inhibition of aggregation induced by 2 μM ADP) and antagonistic activity (prevention of the inhibition of ADP-induced aggregation by 5 mM prostacyclin).
# [3] = test system: cat coronary artery; assay: isolated perfused cat coronary artery, perfusion pressure; settings: isolated perfused cat right coronary artery, 37° C., change in perfusion pressure
# Experimental: Effects of prostacyclin analogs on isolated perfused cat coronary arteries were measured as follows.
# Cats of either sex (2.5-3.5 kg) were anesthetized with sodium pentobarbital (30 mg/kg) given intravenously. Hearts were rapidly excised and placed in oxygenated (95% O2 +5% CO2) ice-cold Krebs-Henseleit (K-H) solution of the following millimolar composition: NaCl, 118; KCl, 4.75; CaCl2.H2 O, 2.54; KH2 PO4, 1.19; MgSO4.7H2 O, 1.19; NaHCO3, 12.5; glucose, 10.00. A 20-gauge stainless steel cannula was inserted into the right coronary artery via the coronary ostium. Distal to the cannula, approximately 1 cm of coronary artery was dissected free of surrounding tissue. The section of right coronary artery with the cannula in place was excised from the heart and immediately transferred to a constant flow perfusion apparatus.
# The perfusion apparatus consists of a reservoir containing 20 ml of warm (37° C.) oxygenated (95% O2 +5% CO2) K-H solution which bathes the coronary artery and serves as recirculating perfusate. An increase in perfusion pressure indicates vasoconstriction, whereas a decrease in perfusion pressure signifies vasodilation. Following an initial 1 hr. equilibrium period, vascular responsiveness was established by adding 25 mM KCl. After washing with fresh K-H solution for 20-30 mins., the preparation achieved a relatively constant low basal tone. Basal perfusion pressure averaged 50±2.5 mm Hg. Fresh K-H dilutions of stock prostacyclin analog concentrations were added to the perfusate reservoir in 0.1-0.2 ml volumes. Changes in perfusion pressure in response to prostacyclin analog addition generally plateaus within 5 mins. of administration.
# [4] = stability of the sodium salt in solution (preparative examples); format: physicochemical; settings: sodium salt after hydrolysis with NaOH in 90% ethanol
# Experimental: Acidification of this compound in aqueous solutions leads to the corresponding acid which can be extracted with ether and purified chromatographically.
# The critical intermediate for this synthesis is 11,15-diol, 5-phenylseleno,6,9α-thiaprostacyclin methyl ester IV (R^1 =--CH3, R^2 =R^3 =H, Z=--S--). The preparation of this intermediate is described in Example 10a. When this intermediate was oxidized with 3.3 equivalents of m-chloroperbenzoic acid in methylene chloride -78°→20° C. for 24 hours, the 6,9α-sulfoprostacyclin methyl ester IX was produced in 85% yield (IX, R^1 =--CH3, R^2 =R^3 =H, n=2). It was isolated by prep layer chromatography and hydrolyzed with NaOH in 90% ethanol at 25° C. to afford the corresponding sodium salt IX.
# [5] = solubility (analytical data of methyl ester); format: physicochemical
# [6] = background statement; cited from earlier work
Compound,t 1/2 saline [1],half-life [1],Biological Activity: Platelet Aggregation [2],Biological Activity: Cat Coronary Artery [3],also measured
"6,9-sulfo-4(E)isoprostacyclin, 6αisomer",> 24 h,–,Inhibitor,Constrictor(M),–
"CCCCCC(O)/C=C/C1C(O)CC2OC(/C=C/CCC(=O)O)CC21 (stereo not drawn) [4(E)-9-deoxy-6,9α-epoxy-Δ^4 -isoprostacyclin(6α)]",> 3 h,–,Antagonist,Constrictor,–
"CCCCCC(O)/C=C/C1C(O)CC2OC(/C=C/CCC(=O)O)CC21 (stereo not drawn) [4(E)-9-deoxy-6,9α-epoxy-Δ^4 -isoprostacyclin(6β)]",> 3 h,–,Inhibitor(P),Constrictor(P),–
"CCCCC[C@H](O)/C=C/[C@@H]1[C@H]2C/C(=C/CCCC(=O)O)S(=O)(=O)[C@H]2C[C@H]1O [5(Z)-6,9α-sulfoprostacyclin sodium salt]",–,–,–,–,stability of sodium salt in solution [4]: quantitatively stable in aqueous solution
"CCCCC[C@H](O)/C=C/[C@@H]1[C@H]2C/C(=C/CCCC(=O)O)[S+]([O-])[C@H]2C[C@H]1O (stereo partly drawn) [5(Z)-6,9α-sulfoxaprostacyclin sodium salt]",–,–,–,–,stability of sodium salt in solution [4]: stable solution
"CCCCC[C@H](O)/C=C/[C@@H]1[C@H]2CC(/C=C/CCC(=O)OC)S(=O)(=O)[C@H]2C[C@H]1O (stereo partly shown) [6,9-sulfo-4(E) is oprostacyclin methyl ester]",–,–,–,–,solubility [5]: CH2 Cl2 and common organic solvents
"CCCCC[C@H](O)/C=C/[C@@H]1[C@H]2C/C(=C/CCCC(=O)OC)S(=O)(=O)[C@H]2C[C@H]1O [6,9α-sulfoprostacyclin methyl ester]",–,–,–,–,solubility [5]: common organic solvents
"CCCCC[C@H](O)/C=C/[C@@H]1[C@H]2C/C(=C/CCCC(=O)O)O[C@H]2C[C@H]1O [Natural Prostacyclin, 6,9α-oxido-11α,15α-dihydroxyprosta-(Z)5, (E)13-dienoic acid, reference compound]",–,–,Inhibitor(P),Dilator(P),biological half-life [6]: 2 minutes

# The next lines start with results.
t 1/2 saline [1],half-life [1],Compound,Biological Activity: Platelet Aggregation [2],Biological Activity: Cat Coronary Artery [3],also measured
> 24 h,–,"6,9-sulfo-4(E)isoprostacyclin, 6βisomer",Antagonist,Constrictor,–
–,> 24 h,"CCCCC[C@H](O)/C=C/[C@@H]1[C@H]2C/C(=C/CCCC(=O)O)S(=O)(=O)[C@H]2C[C@H]1O [6,9-sulfo-5(Z)prostacyclin]",Antagonist(M),Constrictor(M),–
–,> 24 h,"CCCCC[C@H](O)/C=C/[C@@H]1[C@H]2C/C(=C\CCCC(=O)O)[S+]([O-])[C@H]2C[C@H]1O (stereo partly shown) [6,9-sulfoxa-5(E)prostacyclin]",Little activity,Little activity,–
–,> 24 h,"CCCCC[C@H](O)/C=C/[C@@H]1[C@H]2C/C(=C/CCCC(=O)O)[S+]([O-])[C@H]2C[C@H]1O (stereo partly shown) [6,9-sulfoxa-5(Z)prostacyclin]",Little activity,Little activity,–
–,> 3 h,"CCCCC[C@H](O)/C=C/[C@@H]1[C@H]2C/C(=C/CCCC(=O)O)S[C@H]2C[C@H]1O [6,9α-Thia-5(Z)prostacyclin]","Very little activity, if any","Very little activity, if any",–
